Test [1] concerns CB1 M6.55A mutation. The settings on record: M6.55 to alanine; cited from earlier work.
Test [2] relates to CB1 K3.28 mutated to alanine. The settings on record: K3.28 to alanine; cited from earlier work.
In test [3] the test system is CB1 M6.55A mutation. Nature of the test: Published binding data, M6.55A mutation. The settings on record: M6.55 to alanine.
Test [4] relates to CB1 W5.43 mutated to alanine. The settings on record: W5.43 to alanine; cited from earlier work.

These results are taken from PMC4863456 (Journal of Chemical Information and Modeling, 2015).

Some results are limits rather than exact numbers.

As for `Cc1c(C(=O)NN2CCCCC2)nn(-c2ccc(Cl)cc2Cl)c1-c1ccc(Cl)cc1` [rimonabant, N-(Piperidin-1-yl)-5-(4-Chlorophenyl)-1-(2,4-Dichlorophenyl)-4-Methyl-1H -Pyrazole-3-Carboxamide], in the test with CB1 M6.55A mutation [1], the “decrease in binding affinity upon mutation” value is 3 fold. Moreover, the “decrease in experimental binding affinity upon mutation” value in test [2] is given as 17.2 fold; in test [4] it was above 1000 fold. In addition, the “decrease in binding affinity upon mutation, as energy” value in the test with CB1 M6.55A mutation [3] stood at 2.72 kJ/mol.
